The nature of data set [1]: Colonogenic assay for long term cell killing. The format is cell-based. Particulars: ZN-6 at 10 nM; exposure up to 60 minutes, washout, crystal violet staining after 14-day incubation. As to the method: Cell growth inhibition for 3 days is an effect for a short term treatment. A colonogenic assay was used for the long term cell killing effect. One thousand cells were seeded in each well in 6-well plates. On the second day the cells were exposed with the dilutions of the compound for up to 60 minutes. After that the compound was washed away and the cells were refed with fresh medium without the compound. The colonies were visualized by crystal violet staining after 14-day incubation.

Data set [2] addresses T1, mutant p53-R175H protein (Homo sapiens, UniProt P04637, R175H).
T1 construct: endogenous in cells; host or cells: TOV 112D (p53-R175H cells)
The data set can be described thus: Mutant p53 refolding assay (immunofluorescent staining with PAB1620 and PAB240). Particulars: p53-R175H cells (e.g. TOV 112D), treated 6 hours; data not shown. The class given is cell-based. The protocol: An immunofluorescent staining using p53 conformation specific antibodies was used to determine if a test compound could induce the mutant p53 protein refolding to a wildtype conformation. The p53-R175H cells (e.g. TOV 112D) cultured in DMEM+10% FBS were treated with a test compound for 6 hours, then fixed and stained with the antibodies PAB1620 (recognizing WT conformation) and PAB240 (recognizing misfolded/unfolded conformation) respectively.

The subject of data set [3] is human tumor cell lines with different p53 status. The data set can be described thus: Cell growth inhibition assay (Calcein AM). The format is cell-based. Particulars: for EC50: cell growth, Calcein AM, incubation for 3 days, cell line not stated; for Fold (ZN-1/compound) / Fold (compound/ZN-1): ratio of EC50s. The protocol: Cell growth inhibition assay using human tumor cell lines with different p53 status (wildtype, null, p53-R175H or other zinc binding deficient mutants) were employed to determine if a test compound functions as a zinc metallochaperone to restore wildtype p53 functions. The cell growth inhibition assay was performed by Calcein AM assay (Trevigen). Five thousand cells per well were cultured in 96-well plate to reach the 50% confluence on the second day when treated with serial dilutions of the compounds. Growth was measured by Calcein AM assay (Trevigen) and Victor Plate reader instrument (PerkinElmer) after incubation for 3 days.

Data set [4] in a line: Solubility of zinc complexes. The format is physicochemical.
Data set [5] concerns p53 target genes PUMA and GDF15 in p53-R175H cells. The data set can be described thus: Mutant p53 transcriptional reactivation assay by qRT-PCR of p53 target genes. The class given is cell-based. The protocol: p53 is a transcription factor. The reactivation of mutant p53 can be detected by regulation of the p53 target genes using quantitative reverse transcription PCR (qRT-PCR). The p53-R175H cells were treated with the compound for 6 hours and 24 hours followed by qRT-PCR to analyze the gene expression regulation. The two p53 target genes in this assay were PUMA and GDF15. For ZN-6, the expression levels were induced for 18-fold and 53-fold respectively (in parental cells). To double check the p53 dependence of the effect, the same assay applied to the p53 knockout cell line (KO, done by CRISPR-cas9 technology) and the p53 transient knockdown cells (KD, using siRNA knockdown). The PUMA induction was only 2× and 5× and GDF15 induction was only 1× and 5× in KO and KD cells, respectively (See FIG. 1).

Where [6] appears, read: p53 knockout cell line (KO, CRISPR-cas9).
The mark [7] stands for this setting: p53 transient knockdown cells (KD, siRNA).
Setting [8] is: parental p53-R175H cells, 6 hours and 24 hours treatment.

As to `C/C(=N\NC(=S)N1CCC1)c1ccccn1` [ZMC1, reference compound], in data set [1], the “Earliest exposure time that showed effect on colony formation” value worked out at 15 min. The “Refolding of mutant p53 to wildtype conformation” value in data set [2] is reported as “change the mutant p53-R175H protein from mutant conformation to WT conformation”.
For the molecule `C/C(=N\NC(=S)N(C)C)c1ncccc1CN1CCOCC1.C/C(=N\NC(=S)N(C)C)c1ncccc1CN1CCOCC1.[Zn]` [ZN-7, Zn[(E)-N,N-dimethyl-2-(1-(3-(morpholinomethyl)pyridin-2-yl)ethylidene)hydrazine-1-carbothioamide]2], in data set [3], the EC50 is 8.36 nM, the “Fold (ZN-1/compound)” value was 0.3 and the “Fold (compound/ZN-1)” value is 3.1. Also, in data set [4], the “Solubility in DMSO” value was >5000 µg/mL and the “Solubility in EtOH” value is 1000 to 2000 µg/mL.
As for `COCCOCc1ccnc(/C(C)=N/NC(=S)N(C)C)c1.COCCOCc1ccnc(/C(C)=N/NC(=S)N(C)C)c1.[Zn]` [ZN-12, Zn[(E)-2-(1-(4-((2-methoxyethoxy)methyl)pyridin-2-yl)ethylidene)-N,N-dimethylhydrazine-1-carbothioamide]2], in data set [3], the EC50 is 2.52 nM, the “Fold (ZN-1/compound)” value is on record as 1.1 and the “Fold (compound/ZN-1)” value is 0.9.
`COCCOCc1cccnc1/C(C)=N/NC(=S)N(C)C.COCCOCc1cccnc1/C(C)=N/NC(=S)N(C)C.[Zn]` [ZN-6, Zn[(E)-2-(1-(3-((2-methoxyethoxy)methyl)pyridin-2-yl)ethylidene)-N,N-dimethylhydrazine-1-carbothioamide]2]: in data set [3], the EC50 was 5.41 nM, the “Fold (ZN-1/compound)” value is on record as 0.5 and the “Fold (compound/ZN-1)” value was 2.0. In data set [5] (setting [6]), this molecule came in with a GDF15 induction of 1 × and a PUMA induction of 2 ×. In addition, in data set [5] (setting [7]), the GDF15 induction is given as 5 × and the PUMA induction stood at 5 ×. Besides, in data set [5] (setting [8]), the GDF15 expression induction came to 53 fold and the PUMA expression induction is 18 fold. Moreover, the “Earliest exposure time that showed effect on colony formation” value in data set [1] was found to be 15 min. In addition, the “Refolding of mutant p53 to wildtype conformation” value in data set [2] is on record as “change the mutant p53-R175H protein from mutant conformation to WT conformation”. Moreover, the “Solubility in 5% EtOH, 4% Tween80, 4% Kolliphor, 87% water” value in data set [4] (5% EtOH, 4% Tween80, 4% Kolliphor, 87% water) came to 1000 µg/mL. Besides, in data set [4] (10% EtOH, 10% captisol, 80% water), the “Solubility in 10% EtOH, 10% captisol, 80% water” value was found to be 1000 µg/mL. The “Solubility in 50% EtOH 50% H2O” value in data set [4] (50% EtOH, 50% H2O) is >5000 µg/mL. For the same molecule, in data set [4], the “Solubility in DMSO” value was >10000 µg/mL and the “Solubility in EtOH” value is >10000 µg/mL.

The values above are taken from patent publication US12280065B2, “Pharmaceutical compounds and therapeutic methods” (RUTGERS, THE STATE UNIVERSITY OF NEW JERSEY, priority 2019, dated 2025).
